The values that follow come from patent publication US11412737B2, “Mixtures of beflubutamid or optically enriched forms thereof with a second herbicide” (FMC Corporation, priority 2016, dated 2022).

Each structure is given as a SMILES string.

The test system of one assay is Green foxtail (SETVI). The assay is described as follows: post-emergence test, weed control. It is filed as in vivo, Setaria viridis. As to conditions: post-emergent, 28 DAT, BFL at 187.5 g, combination of both. The protocol: (§1) Test compositions containing the test compounds were diluted with water to provide the appropriate test rate concentrations.
(§2) For post-emergence testing, seeds of each species for each rate of application of each herbicide solution were planted in 7.5 cm×7.5 cm plastic pots filled with potting soil. The seeds were germinated and the resulting plants were allowed to grow in a greenhouse until they reached a growth stage, such as height, suitable for testing. Treatments were applied using compressed air in a track spray chamber at 30 gallons/acre (280 L/ha) using a TeeJet 8001E nozzle at 40 psi (2.76 bars). Pots of post-emergent treated plants were returned to the greenhouse and not watered for 24 hours after treatment. Thereafter they were regularly watered and fertilized for the duration of the test.
(§3) The control of weeds was evaluated in each experimental test at 21 for wheat and 28 days after treatment (DAT) for all species. Data were analyzed using Minitab software at 95% confidence interval. The results, shown as an average of the replications, were compared with results observed in untreated control flats in the same tests. Percent control was determined by a method similar to the 0 to 100 rating system disclosed in “Research Methods in Weed Science,” 2nd ed., B. Truelove, Ed.; Southern Weed Science Society; Auburn University, Auburn, Ala., 1977. The rating system is as follows in Table 1.

A further assay deals with Annual bluegrass (POAAN). As to the kind of experiment: post-emergence test, weed control. As to conditions: post-emergent, 28 DAT, height 1-2 cm, rate g ai/ha by row: r7 94, r8 125, r9 188, r10 125, r11 250, r12 94+125, r13 125+125, r14 188+125, r15 94+250, r16 125+250, r17 188+250. It is filed as in vivo, Poa annua. The protocol: as §1, §2, §3
A further assay concerns Barnyardgrass (ECHCG). The assay is described as follows: post-emergence test, weed control. It is filed as in vivo, Echinochloa crus-galli. As to conditions: post-emergent, 28 DAT. The method, then:
as §1
For post-emergence testing, seeds of each species for each rate of application of each herbicide solution were planted in 7.5 cm×7.5 cm plastic pots filled with potting soil. The seeds were germinated and the resulting plants were allowed to grow in a greenhouse until they reached a growth stage, such as height, suitable for testing. […] Pots of post-emergent treated plants were returned to the greenhouse and not watered for 24 hours after treatment. Thereafter they were regularly watered and fertilized for the duration of the test.
The control of weeds was evaluated in each experimental test at 21 for wheat and 28 days after treatment (DAT) for all species. […] The rating system is as follows in Table 1.

The subject of assay [1] is Littleseed canarygrass (PHAMI). The assay is described as follows: post-emergence test, weed control. As to conditions: post-emergent, 28 DAT, height 7-8 cm, rate g ai/ha by row: r25 94, r26 125, r27 188, r28 125, r29 250, r30 94+125, r31 125+125, r32 188+125, r33 94+250, r34 125+250, r35 188+250. The format is in vivo, Phalaris minor. The method, then: as §1, §2, §3
For assay [2], the system named is Common lambsquarters (CHEAL). The assay is described as follows: pre-emergence test, weed control. It is filed as in vivo, Chenopodium album. As to conditions: pre-emergent, 28 DAT. The gist of the method:
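Seeds sown in top-soil flats and watered, then sprayed pre-emergence at 30 gallons per acre from a nozzle 10.5 inches above soil; flats kept in the greenhouse with regular watering and fertilizing. Percent control (0–100 scale versus untreated flats) scored at 21 DAT for wheat and 28 DAT for all species, averaged over replicates.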

The subject of another assay is Shattercane (SOBIA). The assay is described as follows: post-emergence test, weed control. It is filed as in vivo. As to conditions: post-emergent, 28 DAT, height 8 cm; rate g ai/ha by row: r25 94, r26 125, r27 188, r28 125, r29 250, r30 94+125, r31 125+125, r32 188+125, r33 94+250, r34 125+250, r35 188+250. The method, then: as §1, §2, §3
The test system of another assay is Redrice (ORYSA). The assay is described as follows: post-emergence test, weed control. As to conditions: post-emergent, 28 DAT; for percentage of weed control, ORYSA: height 8 cm, rate g ai/ha by row: r25 94, r26 125, r27 188, r28 125, r29 250, r30 94+125, r31 125+125, r32 188+125, r33 94+250, r34 125+250, r35 188+250. It is filed as in vivo. The protocol:
as §1, §2, §3

A further assay relates to Cheat grass (BROSE). As to the kind of experiment: post-emergence test, weed control. It is filed as in vivo. As to conditions: post-emergent, 28 DAT, height 7 cm, rate g ai/ha by row: r7 94, r8 125, r9 188, r10 125, r11 250, r12 94+125, r13 125+125, r14 188+125, r15 94+250, r16 125+250, r17 188+250. The method, then:
as §1, §2, §3

The subject of a further assay is Italian ryegrass (LOLMU). The assay is described as follows: post-emergence test, weed control. It is filed as in vivo, Lolium perenne. multiflorum. As to conditions: post-emergent, 28 DAT; for control of Italian rygrass (LOLMU): combination of both. The method, then: as §1, §2, §3
The mark [3] stands for this setting: BFL at 125 g/ha, DCI at 125 g/ha, combination of both.

Turning to `CCC(Oc1ccc(F)c(C(F)(F)F)c1)C(=O)NCc1ccccc1` (racemic) [BFL, 2-[4-fluoro-3-(trifluoromethyl)phenoxy]-N-(phenylmethyl)butanamide], the “control of green foxtail” value in the assay on Green foxtail (SETVI) (PTX at 890 g) and with Green foxtail (SETVI) (PYX at 90 g) was 54% throughout. The “percentage of weed control, POAAN” value with Annual bluegrass (POAAN) (94 g ai/ha) came out at 0%; with Annual bluegrass (POAAN) (188 g ai/ha), 2%. The “percentage of weed control, Barnyardgrass ECHCG” value with Barnyardgrass (ECHCG) (COC 1%, rate g ai/ha by row: r5 94, r6 125, r7 250, r8 1.25, r9 2.5, r10 5, r11 94+1.25, r13 125+1.25, r15 94+2.5, r17 125+2.5, r19 94+5, r21 125+5) is 5%. Moreover, the “control of barnyardgrass (ECHCG)” value in the assay with Barnyardgrass (ECHCG) (setting [3]) was 6%. Also, the figures for the “percentage of weed control, PHAMI” value in assay [1] (94 g ai/ha) and in [1] (188 g ai/ha) were 0% and 1%, respectively. Also, in [2] (setting [3]), the “control of lambsquarters (CHEAL)” value is on record as 42%. Further, the “percentage of weed control, CHEAL” value in [2] (rate g ai/ha by row: r4 94, r5 50, r6 100, r7 52.5, r8 70, r9 94+52.5, r10 94+70, r11 50+52.5, r12 50+70, r13 100+52.5, r14 100+70) is 16%. For the same molecule, the “percentage of weed control, SOBIA” value in the assay on Shattercane (SOBIA) was found to be 0%. In addition, the “percentage of weed control, ORYSA” value was 46% with Redrice (ORYSA) (94 g ai/ha), 44% with Redrice (ORYSA) (125 g ai/ha) and 28% in the assay on Redrice (ORYSA) (188 g ai/ha). Besides, the “control of red rice” value in the assay with Redrice (ORYSA) (BFL at 187.5 g, PYX at 90 g, combination of both) turned out to be 69%. In addition, the “percentage of weed control, BROSE” value in the assay with Cheat grass (BROSE) (94 g ai/ha) is 0%; in the assay on Cheat grass (BROSE) (188 g ai/ha), 6%. The “percentage of weed control, LOLMU” value in the assay on Italian ryegrass (LOLMU) (height 5-6 cm, rate g ai/ha by row: r25 94, r26 125, r27 188, r28 125, r29 250, r30 94+125, r31 125+125, r32 188+125, r33 94+250, r34 125+250, r35 188+250) is 0%. The “control of Italian rygrass (LOLMU)” value in the assay with Italian ryegrass (LOLMU) (BFL at 188 g/ha, DCI at 125 g/ha) is 0%; in the assay with Italian ryegrass (LOLMU) (DCI at 250 g/ha, BFL at 125 g/ha), 0%.
